Results on seven compounds are retold here after patent publication US9040586B2, “Veterinary compositions for controlling ecto- and endoparasites in bovines, use of these compositions, use of IGR substances associated with microminerals, method for controlling ecto- and endoparasites in bovines and kit” (Champion Farmoquimico Ltda., priority 2012, dated 2015).

For data set [1] the following is noted: cited from earlier work.
The conditions of data set [2]: cited from earlier work. The source holds these as a separate data set.
In data set [3] the test system is Haematobia irritans. Put plainly: Haematobia irritans in vitro test: eggs developed in feces of treated cattle. The settings on record: 20 days. Type of data set: in vivo. As for the experimental part: In order to evaluate the efficacy of Diflubenzuron over H. irritans larval development, without possible interference of climate changes, an experiment was conducted under controlled conditions.
Adult horn flies over untreated animals were captured with a net and then shipped to the Tropical Pathology and Public Health Institute (IPTSP/GO) in order to obtain the eggs. The flies were put on cages lined with moist coffee filter as a substrate for oviposition. The filter was inspected every three hours for eggs. Those were subject to analysis regarding viability and transferred to a vessel containing feces from 4 animals among the control and diflubenzuron treated groups, randomly chosen, each containing 50 viable eggs. These containers with feces were maintained in a B.O.D. incubator with constant temperature (25° C.) and under photoperiod of 12 hours, for a 20 day period, at the end of which was noted an end to the hatching of eggs.
Both groups—T0 e T1—, were statistically compared by the Mann-Whitney test, with P adjusted in 0.05 due to the impossibility of testing distribution normality, given the low number of repetitions (n=4).

For data set [4], the system named is Haematobia irritans. Briefly: Haematobia irritans field test: horn fly counts on calves. In kind it is in vivo. As for the experimental part:
The experiment was conducted at Fazenda Santo Amaro in the city of Ouro Verde de Goiás—GO, Brazil, between October 2011 and January 2012, on 20 calves aged 12-16 months and weigh between 147 and 305 kg, divided in control group (T0) and treated group (T1).
The animals were weighed, identified and kept on Brachiaha brizantha pasture with “ad libitum” access to drinking water troughs. The control group received “ad libitum” minerals (T0), while the treated group received a micromineral mixture containing iron, copper, manganese, iodine, cobalt, zinc, selenium and chromium added to rock salt. Diflubenzuron was added to this mixture in the following proportion: 1.1 g per kilo of the mixture. A macromineral source was offered separately in the trough.
In order to determine the number of horn flies, ticks and helminth eggs per gram of feces, as well as periodic weighing, the animals were handled in a 30 day basis.
The animals were lead to the corral for the initial counting of the total number of horn flies in the cervical and lumbar regions.
The field experiment was conducted during the summer, a critical period for horn fly infestations in Brazil (BIANCHIN et al., 2004). […]
At the end of the experimental period, the animals were lead to the containment chute to have the flies counted. […]

Data set [5] has as its system Rhipicephalus (Boophilus) microplus. Put plainly: Rhipicephalus (Boophilus) microplus challenge: engorged female weight and oviposition. The settings on record: treated group. In kind it is in vivo, calves. As for the experimental part: For this challenge, 5 animals were randomly selected from each group. Animals from both control and treated groups were transferred to individual tick-free pens with wooden tiled floor, where they remained for 21 days until the engorged females dropped to the ground. Those were collected on a daily basis for a 5 day period, and put on plastic vessels, formerly washed and dried with paper towels. After the engorged ticks were weighed, they're put on Petri dishes and then into a B.O.D. incubator for two weeks, under 27° C. and relative humidity over 85% (SANTOS e FURLONG, 2002; PEREIRA, 2006).
After this period, oviposition in each of the Petri dishes were weighed and transferred to assay tubes (15 cm high and with a 15 mm diameter each) sealed with cotton. The assays tubes were labeled and then returned to the B.O.D. incubator, under the same conditions described above, up to the larval emergence.

The subject of data set [6] is gastrointestinal nematodes of cattle. Particulars: 19 of the 23 farms; cited from earlier work.

Consider `Cc1ccc(N=c2sccn2C)c(C)c1` [Cymiazoles], for which the “withdrawal prior to slaughter” value in data set [1] (beef cattle) is reported as 3 days. In addition, the “Withdrawal period Milk” value in data set [1] (milk / lactating cows, in words, table cells wrap over 4 rows: 'Do not apply on lactating cows') was “no withdrawn period needed”.

Take `CC1(C)C(C=C(Cl)Cl)C1C(=O)OC(C#N)c1cccc(Oc2ccccc2)c1` (stereo not drawn) [Cypermethrin]: the “Oral LD50” value in data set [2] is listed as 250 mg/kg.

Consider `CC1(C)[C@H](C(=O)O[C@H](C#N)c2cccc(Oc3ccccc3)c2)[C@@H]1C=C(Br)Br` [Deltamethrin], for which, in data set [2], the “Oral LD50” value was 130 mg/kg.

As for `O=C(NC(=O)c1c(F)cccc1F)Nc1ccc(Cl)cc1` [Diflubenzuron, 1-(4-chloridephenyl)-3-(2,6-difulorobenzoyl)urea], the hatching average with Haematobia irritans [3] (50 viable eggs per container, feces of treated cattle, 25° C., control 43±4.1633) is recorded as 0.5±0.1. The “calculated efficiency, based on the control group” value with Haematobia irritans [3] (in vitro, method of HOLDSWORTH et al., 2006) is 98.83%. For the same compound, the “reduction on horn fly numbers on the treated group” value in the data set with Haematobia irritans [4] is given as “higher than 99%”. In addition, the “average engorged female ticks' weight” value in data set [5] (control 278 mg) stood at 153 mg. Besides, in data set [5] (control 260-295 mg), the “weight of collected engorged ticks” value fell in the range of 145 to 165 mg. Also, in data set [5] (control 2,600), the “average egg laying of the female” value is 900 eggs. The median lethal dose in data set [2] (in vivo) is recorded as 4,640 mg/kg.

Consider `N#Cc1nn(-c2c(Cl)cc(C(F)(F)F)cc2Cl)c(N)c1[S+]([O-])C(F)(F)F` (stereo not drawn) [Fipronil], for which, in data set [2], the “Oral LD50” value is reported as 97 mg/kg.

As to Abamectin, in data set [2], the “Oral LD50” value is recorded as 10 mg/kg.

Take Ivermectin: the “Oral LD50” value in data set [2] was 52 mg/kg. Moreover, the “reductions in FEC” value in data set [6] was less than 50%.
